Measurements from ChEMBL document CHEMBL5137063, “Medicinal Chemistry and Chemical Biology of Nurr1 Modulators: An Emerging Strategy in Neurodegeneration” (J Med Chem, 2022).
Blank lines part the entries; values can stand above or below the compound they belong to.

Key:
[1] = biological target: T1, Nuclear receptor subfamily 4 group A member 2 (Homo sapiens, UniProt P43354); experiment: Agonist activity at human Nurr1 measured by Gal4-Nurr1 hybrid reporter gene assay
[2] = biological target: T1, Nuclear receptor subfamily 4 group A member 2; experiment: Antagonist activity at full length human Nurr1 expressed in HEK293T cells co-expressing 3xNBRE3-luciferase at 50 uM incubated for 18 hrs by luciferase transactivation assay relative to control; type: cell-based; design: scale not given: the % may be the effect or the level left
[3] = biological target: T1, Nuclear receptor subfamily 4 group A member 2; experiment: Antagonist activity at full length human Nurr1 expressed in MN9D cells co-expressing 3xNBRE3-luciferase at 50 uM incubated for 18 hrs by luciferase transactivation assay relative to control; type: cell-based; design: scale not given: the % may be the effect or the level left
[4] = biological target: T2, Nuclear receptor subfamily 4 group A member 2 (Mus musculus, UniProt Q06219); experiment: Agonist activity at Nurr1 in mouse MN9D cells measured by NBRE-based luciferase reporter gene assay; type: cell-based
[5] = biological target: T3, Nuclear receptor subfamily 4 group A member 2 (Rattus norvegicus, UniProt Q07917); experiment: Agonist activity at Nurr1 in rat N27-A cells measured by NBRE-based luciferase reporter gene assay; type: cell-based
[6] = biological target: T2, Nuclear receptor subfamily 4 group A member 2; experiment: Agonist activity at Nurr1 in mouse MN9D cells measured by Gal4-based luciferase reporter gene assay; type: cell-based
[7] = biological target: T3, Nuclear receptor subfamily 4 group A member 2; experiment: Agonist activity at Nurr1 in rat N27-A cells measured by Gal4-based luciferase reporter gene assay; type: cell-based
[8] = biological target: T1, Nuclear receptor subfamily 4 group A member 2; experiment: Agonist activity at Nurr1 in human SK-N-BE(2)-C cells measured by NBRE-based luciferase reporter gene assay; type: cell-based
[9] = biological target: T1, Nuclear receptor subfamily 4 group A member 2; experiment: Agonist activity at Nurr1 in human SK-N-BE(2)-C cells measured by Gal4-based luciferase reporter gene assay; type: cell-based
[10] = biological target: T1, Nuclear receptor subfamily 4 group A member 2; experiment: Agonist activity at Nurr1 ligand binding domain (unknown origin) measured by Gal4-based reporter gene assay
[11] = biological target: T1, Nuclear receptor subfamily 4 group A member 2; experiment: Binding affinity towards Nurr1 ligand binding domain (unknown origin) measured by tryptophan fluorescence spectroscopy

T1 sequence (P43354 whole entry, the tested form may be a part): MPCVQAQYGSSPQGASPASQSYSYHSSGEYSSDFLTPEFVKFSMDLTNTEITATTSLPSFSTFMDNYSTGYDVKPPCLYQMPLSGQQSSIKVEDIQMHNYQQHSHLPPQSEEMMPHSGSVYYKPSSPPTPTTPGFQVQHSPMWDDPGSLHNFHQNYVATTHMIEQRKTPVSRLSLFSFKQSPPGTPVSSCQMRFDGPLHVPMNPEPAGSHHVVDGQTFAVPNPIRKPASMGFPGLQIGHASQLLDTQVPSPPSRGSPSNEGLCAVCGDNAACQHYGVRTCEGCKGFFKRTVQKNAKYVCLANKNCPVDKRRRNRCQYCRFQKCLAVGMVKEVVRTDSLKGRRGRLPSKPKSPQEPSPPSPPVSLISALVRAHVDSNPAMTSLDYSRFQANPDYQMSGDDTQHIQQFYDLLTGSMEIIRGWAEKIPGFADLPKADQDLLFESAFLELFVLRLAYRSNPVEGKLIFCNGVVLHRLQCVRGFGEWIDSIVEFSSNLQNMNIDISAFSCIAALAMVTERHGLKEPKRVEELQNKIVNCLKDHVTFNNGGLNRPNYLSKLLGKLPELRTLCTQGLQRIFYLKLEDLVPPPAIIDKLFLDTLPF
T2 sequence (Q06219 whole entry): as the sequence (P43354 whole entry, the tested form may be a part) above, with T131S, G134S, E354D counted along it
T3 sequence (Q07917 whole entry, the tested form may be a part): as the sequence (P43354 whole entry, the tested form may be a part) above, with T131S, P182R, E354D counted along it

- EC50 [1]: 7.7 µM
Structure (SMILES): Fc1ccc(-c2c[nH]c3ccccc23)cc1

- Activity [2]: 25%
- Activity [3]: 25%
Structure (SMILES): CC/C=C\C/C=C\C/C=C\C/C=C\C/C=C\C/C=C\CCC(=O)O

- EC50 [4]: 3 µM
- EC50 [5]: 3 µM
- EC50 [6]: 3 µM
- EC50 [7]: 3 µM
- EC50 [8]: 3 µM
- EC50 [9]: 3 µM
Structure (SMILES): CCCCC[C@H](O)/C=C/[C@H]1[C@H](O)CC(=O)[C@@H]1CCCCCCC(=O)O [ALPROSTADIL]

- EC50 [10]: 20 µM
Structure (SMILES): CCN(CC)Cc1cc(Nc2ccnc3cc(Cl)ccc23)ccc1O [AMODIAQUINE]

Structure (SMILES): CCCCC/C=C\C/C=C\C/C=C\C/C=C\CCCC(=O)O [ARACHIDONIC ACID]
- Kd [11]: 50 µM

- Kd [11]: 50 µM
Structure (SMILES): CCCCC/C=C\C/C=C\CCCCCCCC(=O)O [LINOLEIC ACID]

- Kd [11]: 50 µM
Structure (SMILES): CCCCCCCC/C=C\CCCCCCCC(=O)O [OLEIC ACID]

- EC50 [4]: 5 µM
- EC50 [5]: 5 µM
- EC50 [6]: 5 µM
- EC50 [7]: 5 µM
- EC50 [8]: 5 µM
- EC50 [9]: 5 µM
Structure (SMILES): CCCCC[C@H](O)/C=C/[C@H]1C=CC(=O)[C@@H]1CCCCCCC(=O)O [PROSTAGLANDIN A1]
